In patent US20250154144A1 (CHILDREN'S HOSPITAL MEDICAL CENTER, priority 2021, published 2025):
Substitutions are numbered along the chain they refer to. Where two headings read alike, the source gives them in different places.

What was measured:
MOLM14(D835Y) cells = type: cell-based
IRAK1 = IRAK1 (Homo sapiens, UniProt P51617); test: RBC HotSpot Kinase Assay, IRAK1; conditions: IRAK1 IC50
IRAK4 = target: T1, IRAK4 (Homo sapiens, UniProt Q9NWZ3); test: RBC HotSpot Kinase Assay, IRAK4; conditions: IRAK4 IC50
T1 sequence (Q9NWZ3 1-460): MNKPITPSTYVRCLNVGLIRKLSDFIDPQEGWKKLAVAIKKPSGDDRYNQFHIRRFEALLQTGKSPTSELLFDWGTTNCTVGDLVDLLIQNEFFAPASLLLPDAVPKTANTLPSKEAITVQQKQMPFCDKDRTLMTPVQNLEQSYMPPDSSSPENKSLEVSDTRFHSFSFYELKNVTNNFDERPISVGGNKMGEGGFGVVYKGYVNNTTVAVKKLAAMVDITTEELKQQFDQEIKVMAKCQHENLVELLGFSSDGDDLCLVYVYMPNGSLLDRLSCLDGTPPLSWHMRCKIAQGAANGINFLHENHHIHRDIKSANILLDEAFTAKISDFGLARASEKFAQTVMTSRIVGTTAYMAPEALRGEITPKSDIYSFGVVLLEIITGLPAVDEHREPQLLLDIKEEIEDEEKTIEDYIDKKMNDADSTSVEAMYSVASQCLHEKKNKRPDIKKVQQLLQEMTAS

FLT3 D835H = target: T2, FLT3 D835H (Homo sapiens, UniProt P36888, D835H); test: DiscoverX KINOMEscan competition binding, FLT3 D835H
T2 construct: purchased DiscoverX (KINOMEscan)
T2 sequence (P36888 27-993 D835H): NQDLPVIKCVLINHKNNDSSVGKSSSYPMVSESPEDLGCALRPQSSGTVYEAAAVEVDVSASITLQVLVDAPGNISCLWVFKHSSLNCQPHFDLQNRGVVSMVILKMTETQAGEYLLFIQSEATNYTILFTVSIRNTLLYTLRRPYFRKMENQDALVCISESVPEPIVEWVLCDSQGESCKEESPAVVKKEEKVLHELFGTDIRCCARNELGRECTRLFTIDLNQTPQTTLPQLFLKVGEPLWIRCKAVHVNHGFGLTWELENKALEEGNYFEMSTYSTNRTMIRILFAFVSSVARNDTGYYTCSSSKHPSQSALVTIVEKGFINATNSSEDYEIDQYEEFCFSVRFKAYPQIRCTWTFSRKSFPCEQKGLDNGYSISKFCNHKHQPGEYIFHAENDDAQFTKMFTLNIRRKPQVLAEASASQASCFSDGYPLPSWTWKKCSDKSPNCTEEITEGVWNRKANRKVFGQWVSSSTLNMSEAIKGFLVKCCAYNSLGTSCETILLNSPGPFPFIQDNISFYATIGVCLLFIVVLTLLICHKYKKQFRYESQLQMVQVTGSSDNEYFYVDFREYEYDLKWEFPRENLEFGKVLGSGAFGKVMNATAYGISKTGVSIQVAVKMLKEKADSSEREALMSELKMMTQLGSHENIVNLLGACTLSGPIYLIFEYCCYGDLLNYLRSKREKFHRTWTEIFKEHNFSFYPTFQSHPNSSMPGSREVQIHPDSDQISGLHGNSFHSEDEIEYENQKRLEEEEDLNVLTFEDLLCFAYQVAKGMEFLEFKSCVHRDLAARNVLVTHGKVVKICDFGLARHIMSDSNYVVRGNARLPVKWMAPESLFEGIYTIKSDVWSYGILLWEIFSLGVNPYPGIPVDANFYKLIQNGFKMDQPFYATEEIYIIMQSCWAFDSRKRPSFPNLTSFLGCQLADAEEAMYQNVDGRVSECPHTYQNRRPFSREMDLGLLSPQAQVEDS

FLT3 N841I = target: T3, FLT3 N841I (Homo sapiens, UniProt P36888, N841I); test: DiscoverX KINOMEscan competition binding, FLT3 N841I
T3 construct: purchased DiscoverX (KINOMEscan)
T3 sequence (P36888 27-993 N841I): T2 sequence (P36888 27-993 D835H) with H809D, N815I

[1] = starting conc. 100 nM, with (+)-BAY-1251152 starting conc. 1000 nM
[2] = starting conc. 100 nM, with TNO-155 starting conc. 10000 nM
[3] = starting conc. 100 nM, with Venetoclax (ABT-199) starting conc. 2000 nM
[4] = starting conc. 100 nM, with Venetoclax (ABT-199) starting conc. 20000 nM
[5] = starting conc. 20000 nM, with (+)-BAY-1251152 starting conc. 1000 nM
[6] = starting conc. 20000 nM, with TNO-155 starting conc. 10000 nM
[7] = starting conc. 20000 nM, with Venetoclax (ABT-199) starting conc. 2000 nM
[8] = starting conc. 20000 nM, with Venetoclax (ABT-199) starting conc. 20000 nM

Chain of IRAK1 (P51617 whole entry): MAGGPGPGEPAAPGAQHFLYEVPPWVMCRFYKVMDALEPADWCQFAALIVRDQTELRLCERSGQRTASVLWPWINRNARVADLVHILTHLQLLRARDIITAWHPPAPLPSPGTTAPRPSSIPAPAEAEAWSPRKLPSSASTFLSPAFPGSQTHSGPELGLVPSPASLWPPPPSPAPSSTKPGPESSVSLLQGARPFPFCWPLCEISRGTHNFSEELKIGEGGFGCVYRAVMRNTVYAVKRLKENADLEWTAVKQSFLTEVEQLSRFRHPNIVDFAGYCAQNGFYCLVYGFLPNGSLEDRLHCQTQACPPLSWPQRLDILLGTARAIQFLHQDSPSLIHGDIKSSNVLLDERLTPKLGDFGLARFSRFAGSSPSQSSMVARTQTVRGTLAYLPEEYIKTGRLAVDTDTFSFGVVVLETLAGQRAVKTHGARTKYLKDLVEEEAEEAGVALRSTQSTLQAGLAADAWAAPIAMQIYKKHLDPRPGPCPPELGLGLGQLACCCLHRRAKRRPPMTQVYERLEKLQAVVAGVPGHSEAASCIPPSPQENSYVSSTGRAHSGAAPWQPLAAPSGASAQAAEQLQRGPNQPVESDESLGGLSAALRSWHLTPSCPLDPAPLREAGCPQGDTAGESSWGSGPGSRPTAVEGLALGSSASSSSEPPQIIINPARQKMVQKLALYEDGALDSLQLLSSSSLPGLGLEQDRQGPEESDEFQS

SMILES: COc1cc2ncc(-c3ccnc(N[C@@H]4CCCNC4)n3)n2nc1C1CC1 [Compound 50, (R)-4-(6-cyclopropyl-7-methoxyimidazo[1,2-b]pyridazin-3-yl)-N-(piperidin-3-yl)pyrimidin-2-amine]
- Excess HSA Score (MOLM14(D835Y) cells; MOLM14(D835Y) cells, 10 × 10, combination with (+)-BAY-1251152): −552.5
- Excess HSA Score (MOLM14(D835Y) cells; MOLM14(D835Y) cells, 10 × 10, combination with AMG-232): −129.9
- Excess HSA Score (MOLM14(D835Y) cells; MOLM14(D835Y) cells, 10 × 10, combination with AZD-5363): 12.5
- Excess HSA Score (MOLM14(D835Y) cells; MOLM14(D835Y) cells, 10 × 10, combination with Eprenetapopt/APR-246): −99.03
- Excess HSA Score (MOLM14(D835Y) cells; MOLM14(D835Y) cells, 10 × 10, combination with Ivosidenib): 219
- Excess HSA Score (MOLM14(D835Y) cells; MOLM14(D835Y) cells, 10 × 10, combination with Lenalidomide): 555
- Excess HSA Score (MOLM14(D835Y) cells; MOLM14(D835Y) cells, 10 × 10, combination with Palbociclib): −528.5
- Excess HSA Score (MOLM14(D835Y) cells; MOLM14(D835Y) cells, 10 × 10, combination with Prednisolone): 196.6
- Excess HSA Score (MOLM14(D835Y) cells; MOLM14(D835Y) cells, 10 × 10, combination with SNDX-5613): −229.3
- Excess HSA Score (MOLM14(D835Y) cells; MOLM14(D835Y) cells, 10 × 10, combination with TNO-155): −1021
- Excess HSA Score (MOLM14(D835Y) cells; MOLM14(D835Y) cells, 10 × 10, combination with Trametinib): −342.3
- Excess HSA Score (MOLM14(D835Y) cells; MOLM14(D835Y) cells, 10 × 10, combination with Ulixertinib): 149.4
- Excess HSA Score (MOLM14(D835Y) cells; MOLM14(D835Y) cells, 10 × 10, combination with Venetoclax (ABT-199)): −1391
- Comments (MOLM14(D835Y) cells; MOLM14(D835Y) cells, combination with AZD-5363): Antagonistic
- Comments (MOLM14(D835Y) cells; MOLM14(D835Y) cells, combination with Venetoclax (ABT-199)): Synergistic
- Comments (MOLM14(D835Y) cells; [1]): Synergistic
- Excess HSA Score (MOLM14(D835Y) cells; [1]): −317.9
- Excess HSA Score (MOLM14(D835Y) cells; starting conc. 100 nM, with Azacitidine (5-Azacytidine) starting conc. 20000 nM): −579.8
- Excess HSA Score (MOLM14(D835Y) cells; starting conc. 100 nM, with Palbociclib starting conc. 10000 nM): −1019
- Excess HSA Score (MOLM14(D835Y) cells; starting conc. 100 nM, with Prednisolone starting conc. 10000 nM): 9.258
- Comments (MOLM14(D835Y) cells; [2]): Synergistic
- Excess HSA Score (MOLM14(D835Y) cells; [2]): −1043.6684
- Comments (MOLM14(D835Y) cells; [3]): Synergistic;
- Excess HSA Score (MOLM14(D835Y) cells; [3]): −1372
- Comments (MOLM14(D835Y) cells; [4]): Synergistic;
- Excess HSA Score (MOLM14(D835Y) cells; [4]): −83.83
- Comments (MOLM14(D835Y) cells; [5]): Antagonistic
- Excess HSA Score (MOLM14(D835Y) cells; [5]): 67.99
- Excess HSA Score (MOLM14(D835Y) cells; starting conc. 20000 nM, with Azacitidine (5-Azacytidine) starting conc. 20000 nM): −56.9
- Excess HSA Score (MOLM14(D835Y) cells; starting conc. 20000 nM, with Palbociclib starting conc. 10000 nM): −31.37
- Excess HSA Score (MOLM14(D835Y) cells; starting conc. 20000 nM, with Prednisolone starting conc. 10000 nM): 121.2
- Comments (MOLM14(D835Y) cells; [6]): Additive
- Excess HSA Score (MOLM14(D835Y) cells; [6]): −2.487
- Comments (MOLM14(D835Y) cells; [7]): Synergistic;
- Excess HSA Score (MOLM14(D835Y) cells; [7]): −1026
- Comments (MOLM14(D835Y) cells; [8]): Synergistic;
- Excess HSA Score (MOLM14(D835Y) cells; [8]): −74.01
- IC50 (IRAK1): 63 nM
- IC50 (IRAK4): 4 nM

SMILES: COc1cc2ncc(-c3cncc(N[C@H]4CNC[C@@H]4F)n3)n2nc1C1CC1 [Compound 22, 6-(6-cyclopropyl-7-methoxyimidazo[1,2-b]pyridazin-3-yl)-N-((3S,4S)-4-fluoropyrrolidin-3-yl)pyrazin-2-amine]
- Kd (FLT3 D835H): 0.87 nM
- Kd (FLT3 N841I): 5.6 nM
- IC50 (IRAK1): 61 nM
- IC50 (IRAK4): 1 nM

SMILES: COc1cc2ncc(-c3ccnc(N[C@H]4CNC[C@@H]4F)n3)n2nc1C1CC1 [Compound 49, 4-(6-cyclopropyl-7-methoxyimidazo[1,2-b]pyridazin-3-yl)-N-((3S,4S)-4-fluoropyrrolidin-3-yl)pyrimidin-2-amine]
- Kd (FLT3 D835H): 0.46 nM
- Kd (FLT3 N841I): 0.61 nM
- IC50 (IRAK1): 11 nM
- IC50 (IRAK4): 1 nM

SMILES: COc1cc2ncc(-c3ccnc(N[C@H]4CNCC[C@@H]4F)n3)n2nc1C1CC1 [Compound 51, 4-(6-cyclopropyl-7-methoxyimidazo[1,2-b]pyridazin-3-yl)-N-((3S,4S)-4-fluoropiperidin-3-yl)pyrimidin-2-amine]
- Kd (FLT3 D835H): 0.47 nM
- Kd (FLT3 N841I): 0.62 nM
- IC50 (IRAK1): 11 nM
- IC50 (IRAK4): 0.6 nM
